Results taken from patent US12258354B2, “AhR modulators” (IDEAYA BIOSCIENCES, INC., priority 2018, dated 2025).

Each molecule was assayed against T1, hAhR (Homo sapiens, UniProt P35869) (assay: DRE-luciferase transcriptional reporter assay in HEPG2 DRE-Luc cells, TCDD-induced (antagonist mode)). Conditions: relative IC50, 3 nM TCDD, 24-hour incubation, firefly luciferase readout.
T1 construct: Stably integrated DRE-luciferase cell lines were generated by transducing the both cell lines with Cignal XRE luciferase reporter; endogenous in cells; host or cells: HEPG2 DRE-Luc cells (only the XRE luciferase reporter was transduced)
T1 sequence (P35869 11-848): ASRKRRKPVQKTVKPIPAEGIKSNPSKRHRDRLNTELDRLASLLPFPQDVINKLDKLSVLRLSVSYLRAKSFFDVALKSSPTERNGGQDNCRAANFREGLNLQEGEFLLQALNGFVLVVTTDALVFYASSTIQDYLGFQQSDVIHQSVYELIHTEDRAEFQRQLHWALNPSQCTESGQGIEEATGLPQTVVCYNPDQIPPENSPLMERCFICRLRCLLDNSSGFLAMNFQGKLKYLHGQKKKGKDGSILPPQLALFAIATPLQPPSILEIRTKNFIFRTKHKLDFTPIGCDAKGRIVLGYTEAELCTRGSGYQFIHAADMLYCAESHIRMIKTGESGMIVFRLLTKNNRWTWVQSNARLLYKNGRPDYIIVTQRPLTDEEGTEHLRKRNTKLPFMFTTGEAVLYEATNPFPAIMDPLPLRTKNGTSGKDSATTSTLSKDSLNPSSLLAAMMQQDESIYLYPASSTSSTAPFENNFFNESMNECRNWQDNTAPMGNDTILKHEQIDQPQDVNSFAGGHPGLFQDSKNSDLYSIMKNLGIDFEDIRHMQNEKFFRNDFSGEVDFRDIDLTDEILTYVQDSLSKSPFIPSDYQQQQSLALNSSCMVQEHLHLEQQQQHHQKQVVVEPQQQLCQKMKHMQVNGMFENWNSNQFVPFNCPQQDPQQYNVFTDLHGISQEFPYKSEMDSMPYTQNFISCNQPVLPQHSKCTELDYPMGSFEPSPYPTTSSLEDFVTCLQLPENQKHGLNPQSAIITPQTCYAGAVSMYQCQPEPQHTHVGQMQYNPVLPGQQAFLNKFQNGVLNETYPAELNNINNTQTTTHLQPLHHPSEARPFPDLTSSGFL
Type: cell-based
How it was run: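 Stable DRE(XRE)-luciferase HEPG2 clone seeded in OptiMEM with 0.5% heat-inactivated FBS, then given a semi-log compound dilution plus TCDD at 3 nM final. After 24 h, cells were lysed and firefly luminescence read. Response was normalised between TCDD and vehicle, and relative IC50 was taken as half-reduction between the fitted curve plateaus.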

First: Cn1ncc2c1C(=O)N(c1ccc(-c3ncc4nc(C(F)(F)F)ccc4n3)cc1)CCO2 [compound 050, 1-methyl-7-(4-(6-(trifluoromethyl)pyrido[3,2-d]pyrimidin-2-yl)phenyl)-6,7-dihydro-1H-pyrazolo[3,4-f][1,4]oxazepin-8 (5H)-one]
Second: Cc1cc(-c2ncc3nc(F)ccc3n2)ccc1N1CCOc2cnn(C)c2C1=O [compound 051, 7-(4-(6-fluoropyrido[3,2-d]pyrimidin-2-yl)-2-methylphenyl)-1-methyl-6,7-dihydro-1H-pyrazolo[3,4-f][1,4]oxazepin-8 (5H)-one]
The IC50 of the first is lower: < 200 nM for the first, 200 to 500 nM for the second. The first is the more potent here.

First: Cc1cc(-c2ccc3nc(F)ccc3n2)ccc1N1CCOc2cnn(C)c2C1=O [compound 052, 7-(4-(6-fluoro-1,5-naphthyridin-2-yl)-2-methylphenyl)-1-methyl-6,7-dihydro-1H-pyrazolo[3,4-f][1,4]oxazepin-8 (5H)-one]
Second: Cc1cc(-c2ncc3cc(F)ccc3n2)ccc1N1CCOc2cnn(C)c2C1=O [compound 053, 7-(4-(6-fluoroquinazolin-2-yl)-2-methylphenyl)-1-methyl-6,7-dihydro-1H-pyrazolo[3,4-f][1,4]oxazepin-8 (5H)-one]
The IC50 of the first is higher: 500 to 1000 nM for the first, 200 to 500 nM for the second.

`Cc1cc(-c2ncc3cc(C(F)(F)F)ccc3n2)ccc1N1CCOc2cccnc2C1=O` [compound 054, 4-(2-methyl-4-(6-(trifluoromethyl)quinazolin-2-yl)phenyl)-3,4-dihydropyrido[2,3-f][1,4]oxazepin-5 (2H)-one] and `Cc1cc(-c2ncc3cc(C(F)(F)F)ccc3n2)ccc1N1CCOc2cncnc2C1=O` [compound 055, 8-(2-methyl-4-(6-(trifluoromethyl)quinazolin-2-yl)phenyl)-7,8-dihydropyrimido[4,5-f][1,4]oxazepin-9 (6H)-one] fall in the same range of IC50: 200 to 500 nM for the first, 200 to 500 nM for the second.

First: CCOC(=O)c1nn2c(c1C)C(=O)N(c1ccc(-c3ncc4cc(C(F)(F)F)ccc4n3)cc1C)CC2 [compound 056, ethyl 3-methyl-5-(2-methyl-4-(6-(trifluoromethyl)quinazolin-2-yl)phenyl)-4-oxo-4,5,6,7-tetrahydropyrazolo[1,5-a]pyrazine-2-carboxylate]
Second: Cc1cc(-c2ncc3cc(C(F)(F)F)ccc3n2)ccc1N1CCn2nc(C(=O)O)c(C)c2C1=O [compound 060, 3-methyl-5-(2-methyl-4-(6-(trifluoromethyl)quinazolin-2-yl)phenyl)-4-oxo-4,5,6,7-tetrahydropyrazolo[1,5-a]pyrazine-2-carboxylic acid]
The IC50 of the first is lower: < 200 nM for the first, 200 to 500 nM for the second.

`Cc1cc(-c2ncc3cc(C(F)(F)F)ccc3n2)ccc1N1CCn2nc(CO)c(C)c2C1=O` [compound 057, 2-(hydroxymethyl)-3-methyl-5-(2-methyl-4-(6-(trifluoromethyl)-quinazolin-2-yl)phenyl)-6,7-dihydropyrazolo[1,5-a]pyrazin-4 (5H)-one] and `Cc1cc(-c2ncc3cc(C(F)(F)F)ccc3n2)ccc1N1CCn2nc(CN(C)C)c(C)c2C1=O` [compound 063, 2-((dimethylamino)methyl)-3-methyl-5-(2-methyl-4-(6-(trifluoromethyl)-quinazolin-2-yl)phenyl)-6,7-dihydropyrazolo[1,5-a]pyrazin-4 (5H)-one] cannot be ordered by IC50: < 200 nM for the first, < 200 nM for the second.

`Cc1cc(-c2ncc3cc(C(F)(F)F)ccc3n2)ccc1N1CCn2nc(C(C)O)c(C)c2C1=O` (centres unmarked) [compound 058, 2-(1-hydroxyethyl)-3-methyl-5-(2-methyl-4-(6-(trifluoromethyl)-quinazolin-2-yl)phenyl)-6,7-dihydropyrazolo[1,5-a]pyrazin-4 (5H)-one] and `Cc1cc(-c2ncc3cc(C(F)(F)F)ccc3n2)ccc1N1CCn2nc(C(C)(C)O)c(C)c2C1=O` [compound 059, 2-(2-hydroxypropan-2-yl)-3-methyl-5-(2-methyl-4-(6-(trifluoromethyl)-quinazolin-2-yl)phenyl)-6,7-dihydropyrazolo[1,5-a]pyrazin-4 (5H)-one] cannot be ordered by IC50: < 200 nM for the first, < 200 nM for the second.

`Cc1cc(-c2ncc3cc(C(F)(F)F)ccc3n2)ccc1N1CCn2nc(CN3CCOCC3)c(C)c2C1=O` [compound 061, 3-methyl-5-(2-methyl-4-(6-(trifluoromethyl)quinazolin-2-yl)phenyl)-2-(morpholinomethyl)-6,7-dihydropyrazolo[1,5-a]pyrazin-4 (5H)-one] and `Cc1cc(-c2ncc3cc(C(F)(F)F)ccc3n2)ccc1N1CCn2ncc(CN3CCOCC3)c2C1=O` [compound 070, 5-(2-methyl-4-(6-(trifluoromethyl)quinazolin-2-yl)phenyl)-3-(morpholino-methyl)-6,7-dihydropyrazolo[1,5-a]pyrazin-4 (5H)-one] cannot be ordered by IC50: < 200 nM for the first, < 200 nM for the second.

`Cc1cc(-c2ncc3cc(C(F)(F)F)ccc3n2)ccc1N1CCn2nc(C(=O)N3CCOCC3)c(C)c2C1` [compound 062, (3-methyl-5-(2-methyl-4-(6-(trifluoromethyl)quinazolin-2-yl)phenyl)-4,5,6,7-tetrahydropyrazolo[1,5-a]pyrazin-2-yl)(morpholino)methanone] and `Cc1cc(-c2ncc3cc(C(F)(F)F)ccc3n2)ccc1N1CCn2ncc(N3CCOCC3)c2C1=O` [compound 068, 5-(2-methyl-4-(6-(trifluoromethyl)quinazolin-2-yl)phenyl)-3-morpholino-6,7-dihydropyrazolo[1,5-a]pyrazin-4 (5H)-one] cannot be ordered by IC50: < 200 nM for the first, < 200 nM for the second.

`Cc1cc(-c2ncc3cc(C(F)(F)F)ccc3n2)ccc1N1CCn2ncc(Br)c2C1=O` [compound 064, 3-bromo-5-(2-methyl-4-(6-(trifluoromethyl)quinazolin-2-yl)phenyl)-6,7-dihydropyrazolo[1,5-a]pyrazin-4 (5H)-one] and `Cc1cc(-c2ncc3cc(C(F)(F)F)ccc3n2)ccc1N1CCn2ncc(C#N)c2C1=O` [compound 067, 5-(2-methyl-4-(6-(trifluoromethyl)quinazolin-2-yl)phenyl)-4-oxo-4,5,6,7-tetrahydropyrazolo[1,5-a]pyrazine-3-carbonitrile] cannot be ordered by IC50: < 200 nM for the first, < 200 nM for the second.

First: Cc1cc(-c2ncc3cc(C(F)(F)F)ccc3n2)ccc1N1CCn2ncc(C(=O)O)c2C1=O [compound 065, 5-(2-methyl-4-(6-(trifluoromethyl)quinazolin-2-yl)phenyl)-4-oxo-4,5,6,7-tetrahydropyrazolo[1,5-a]pyrazine-3-carboxylic acid]
Second: Cc1cc(-c2ncc3cc(C(F)(F)F)ccc3n2)ccc1N1CCn2ncc(C(N)=O)c2C1=O [compound 066, 5-(2-methyl-4-(6-(trifluoromethyl)quinazolin-2-yl)phenyl)-4-oxo-4,5,6,7-tetrahydropyrazolo[1,5-a]pyrazine-3-carboxamide]
The IC50 of the first is higher: 500 to 1000 nM for the first, < 200 nM for the second. The second is the more potent here.

First: Cc1cc(-c2ncc3cc(C(F)(F)F)ccc3n2)ccc1N1CCOc2cnn(CCN3CCOCC3)c2C1=O [compound 071, 7-(2-methyl-4-(6-(trifluoromethyl)quinazolin-2-yl)phenyl)-1-(2-morpholinoethyl)-6,7-dihydro-1H-pyrazolo[3,4-f][1,4]oxazepin-8 (5H)-one]
Second: Cc1cc(-c2ncc3cc(C(F)(F)F)ccc3n2)ccc1N1CCOc2cnn(CCN3CCC(O)CC3)c2C1=O [compound 072, 1-(2-(4-hydroxypiperidin-1-yl)ethyl)-7-(2-methyl-4-(6-(trifluoromethyl)-quinazolin-2-yl)phenyl)-6,7-dihydro-1H-pyrazolo[3,4-f][1,4]oxazepin-8 (5H)-one]
The IC50 of the first is lower: 500 to 1000 nM for the first, 1000 to 10000 nM for the second.

`Cc1cc(-c2ncc3cc(C(F)(F)F)ccc3n2)ccc1N1CCOc2cnn(CCN3CCC(F)(F)CC3)c2C1=O` [compound 073, 1-(2-(4,4-difluoropiperidin-1-yl)ethyl)-7-(2-methyl-4-(6-(trifluoromethyl)-quinazolin-2-yl)phenyl)-6,7-dihydro-1H-pyrazolo[3,4-f][1,4]oxazepin-8 (5H)-one] and `Cc1cc(-c2ncc3cc(C(F)(F)F)ccc3n2)ccc1N1CCOc2cnn(CC(=O)O)c2C1=O` [compound 076, 2-(7-(2-methyl-4-(6-(trifluoromethyl)quinazolin-2-yl)phenyl)-8-oxo-5,6,7,8-tetrahydro-1H-pyrazolo[3,4-f][1,4]oxazepin-1-yl)acetic acid] fall in the same range of IC50: 1000 to 10000 nM for the first, 1000 to 10000 nM for the second.

`Cc1cc(-c2ncc3cc(C(F)(F)F)ccc3n2)ccc1N1CCOc2cnn(Cc3nnn[nH]3)c2C1=O` [compound 075, 7-[2-methyl-4-[6-(trifluoromethyl)quinazolin-2-yl]phenyl]-1-[(1H-1,2,3,4-tetrazol-5-yl)methyl]-1H,5H,6H,7H,8H-pyrazolo[3,4-f][1,4]oxazepin-8-one] and `Cc1cc(-c2ncc3cc(C(F)(F)F)ccc3n2)ccc1N1CCOc2cn(Cc3nnn[nH]3)nc2C1=O` [compound 077, 2-((1H-tetrazol-5-yl)methyl)-7-(2-methyl-4-(6-(trifluoromethyl)-quinazolin-2-yl)phenyl)-6,7-dihydro-2H-pyrazolo[3,4-f][1,4]oxazepin-8 (5H)-one] fall in the same range of IC50: 1000 to 10000 nM for the first, 1000 to 10000 nM for the second.
